Test results: patent US20090298781A1, “COMPOUNDS FOR THE INHIBITION OF APOPTOSIS” (CONSEJO SUPERIOR DE, priority 2005, published 2009)
Where “and” joins values, the source holds several entries; their conditions need not be identical. Identical values can stand only once. Blank lines part the entries; values can stand above or below the molecule they belong to.

Assays:
Type in all cases: cell-based
[1] = test system: Caspase activity, U937 cell extracts; test: Caspase inhibition assay, U937 cell extracts; conditions: for % Caspase inhibition / inhibition at 5 µM: 5 μM; for % Inh. caspase: 50 μM drug-eq.; for inhibition at 1 µM / inhibition at 5 µM: Homo sapiens, U-937
Method: (§1) The time-dependent inhibition of caspase induced by the compounds described in this invention was analysed. […] Caspase activity was assayed using Saos-2 or U937 cell extracts and Ac-DEVD-afc (N-acetyl-Asp-Glu-Val-Asp-afc(7-amino-4-trifluoromethyl coumarin)) as substrate (20 μM). Caspase activity was continuously monitored by the liberation of fluorescent afc using a Cytofluor 4000 fluorimeter (excitation 400 nm; emission 508 nm) for 1 hour. The effect of the compounds on the caspase activity was expressed as the percentage of inhibition in the fluorescence signal of treated cells vs. the non-treated cells (control).

Caspase activity, HeLa = test: Caspase inhibition assay, HeLa; conditions: for % Caspase inhibition / inhibition at 5 µM: 5 μM; for inhibition at 1 µM / inhibition at 5 µM: Homo sapiens
Saos-2 cell line = test: MTT assay, toxicity (cell viability), Saos-2
Method: (§2) The MTT assay measures cell proliferation as well as reduction in cell viability when metabolic events lead to apoptosis or necrosis. It can also be used to assess the rate of survival of a given cell line when it is incubated in the presence of xenobiotics. The reduction of tetrazolium salts is accepted as a reliable way to analyse cell proliferation. The yellow tetrazolium MTT (3-(4,5-dimethylthiazolyl-2)-2,5-diphenyltetrazolium bromide) is reduced by metabolically active cells and results in the intracellular formation of purple formazan that can be spectrophotometrically measured after solubilisation with DMSO.
(§3) The MTT assay was used in this invention to assess the toxicity of compounds at different concentrations. To analyse their potential impairment in cell viability, compounds were added to Saos-2 and U937 cell lines at different concentrations and incubated at different times. Results are expressed by percentage cell viability.

U937 cell line = test: MTT assay, toxicity (cell viability), U937
Method: as §2, §3

[2] = test system: Caspase activity, Saos-2 cell extracts; test: Caspase inhibition assay, Saos-2 cell extracts; conditions: for % Caspase inhibition: 5 μM; for % Inh. caspase: 50 μM drug-eq.; for inhibition at 1 µM: Homo sapiens
Method: as §1

Caspase activity, U2-OS = test: Caspase inhibition assay, U2-OS; conditions: for % Caspase inhibition / inhibition at 5 µM: 5 μM; for inhibition at 1 µM / inhibition at 5 µM: Homo sapiens, U2OS
[3] = test system: Apaf-1 induced apoptosis, U937 cells; test: Inhibition of Apaf-1-induced apoptosis, cellular assay, U937; conditions: U937 treated with apoptosome activator, 50 μM drug-eq
Method: (§4) The time-dependent inhibition of caspase induced by the compounds described in this invention was analysed. Cell lines were grown in the presence or absence of compounds (50 μM) at different times. Caspase activity was assayed using Saos-2 or U937 cell extracts and Ac-DEVD-afc (N-acetyl-Asp-Glu-Val-Asp-afc(7-amino-4-trifluoromethyl coumarin)) as substrate (20 μM). Caspase activity was continuously monitored by the liberation of fluorescent afc using a Cytofluor 4000 fluorimeter (excitation 400 nm; emission 508 nm) for 1 hour. The effect of the compounds on the caspase activity was expressed as the percentage of inhibition in the fluorescence signal of treated cells vs. the non-treated cells (control).
(§5) The activity of the compounds regards their specific target within the apoptotic machinery was assessed. Apaf-1 oligomerisation is a molecular event that leads to the activation of the apoptosome formation, which ends up in the induction of apoptosis. These experiments were performed in cell-free and in cellular assays.
(§6) For the cellular assays, Saos-2 and U937 cells were treated with an apoptosome activator (Nguyen and Wells, Proc. Natl. Acad. Sci. USA 2003, 100:7533-7538), which specifically induces Apaf-1 oligomerisation. […] The capacity of the compounds of inhibiting the Apaf-1 induced apoptosis was analysed by the inhibition of caspase activity (see above).

[4] = test system: Apaf-1 induced apoptosis, Saos-2 cells; test: Inhibition of Apaf-1-induced apoptosis, cellular assay, Saos-2; conditions: Saos-2 treated with apoptosome activator, 50 μM drug-eq
Method: as §4, §5, §6

% Caspase inhibition (Caspase activity, HeLa; 24 h): 6%
% Caspase inhibition (Caspase activity, HeLa; 48 h): 7%
% Caspase inhibition (Caspase activity, HeLa; 72 h): 11%
% Caspase inhibition (Caspase activity, U2-OS; 24 h): 0%
% Caspase inhibition (Caspase activity, U2-OS; 48 h): 31%
% Caspase inhibition (Caspase activity, U2-OS; 72 h): 33%
Molecule: COc1ccccc1CCN(CC(N)=O)C(=O)C1CC(=O)N(CCc2ccc(Cl)cc2Cl)CC(=O)N1CCC(c1ccccc1)c1ccccc1 (centres unmarked) [I.7, 1-[2-(2,4-Dichlorophenyl)ethyl]-4-(3,3-diphenylpropyl)-3,7-dioxo[1,4]diazepane-5-carboxylic acid carbamoylmethy-[2-(2-methoxyphenyl)ethyl]amide]
% Caspase inhibition ([1]; U937, 24 h): 10%
% Caspase inhibition ([1]; U937, 48 h): 8%
% Caspase inhibition ([1]; U937, 72 h): 2%
% Cell viability (Saos-2 cell line; Saos-2, 24 h, 1 μM): 95%
% Cell viability (Saos-2 cell line; Saos-2, 24 h, 5 μM): 99%
% Cell viability (Saos-2 cell line; Saos-2, 24 h, 10 μM): 98%
% Cell viability (Saos-2 cell line; Saos-2, 48 h, 1 μM): 100%
% Cell viability (Saos-2 cell line; Saos-2, 48 h, 5 μM): 100%
% Cell viability (Saos-2 cell line; Saos-2, 48 h, 10 μM): 100%
% Cell viability (U937 cell line; U937, 24 h, 1 μM): 99%
% Cell viability (U937 cell line; U937, 24 h, 5 μM): 95%
% Cell viability (U937 cell line; U937, 24 h, 10 μM): 93%
% Cell viability (U937 cell line; U937, 48 h, 1 μM): 100%
% Cell viability (U937 cell line; U937, 48 h, 5 μM): 100%
% Cell viability (U937 cell line; U937, 48 h, 10 μM): 97%
% Caspase inhibition ([2]; Saos-2, 24 h): 0%
% Caspase inhibition ([2]; Saos-2, 48 h): 24%

Molecule: Poly-L-glutamic acid-[1-[2-(2,4-Dichlorophenyl)ethyl]-3-(3,3-diphenyl-propyl)-3,7-dioxo[1,4]diazepane-5-carboxylic acid {[({[(5-amino-1-carbamoylpentylcarbamoyl)methyl]-carbamoyl}methyl)carbamoyl]methyl}-[2-(2,4-dichlorophenyl)ethyl]amide] conjugate [III.1]
% Inh. caspase ([1]; U937, 24 h): 74%
% Inh. caspase ([1]; U937, 48 h): 85%
% Inh. caspase ([1]; U937, 72 h): 100%
% Inh. caspase activity ([3]; 24 h): 27%
% Inh. caspase activity ([3]; 48 h): 95%
% Inh. caspase activity ([4]; 24 h): 22%
% Inh. caspase activity ([4]; 48 h): 54%
% Cell viability (Saos-2 cell line; Saos-2, 24 h, 20 μM drug-eq.): 96%
% Cell viability (Saos-2 cell line; Saos-2, 24 h, 50 μM drug-eq.): 99%
% Cell viability (Saos-2 cell line; Saos-2, 24 h, 100 μM drug-eq.): 93%
% Cell viability (Saos-2 cell line; Saos-2, 24 h, 250 μM drug-eq.): 75%
% Cell viability (Saos-2 cell line; Saos-2, 24 h, 500 μM drug-eq.): 35%
% Cell viability (Saos-2 cell line; Saos-2, 48 h, 20 μM drug-eq.): 95%
% Cell viability (Saos-2 cell line; Saos-2, 48 h, 50 μM drug-eq.): 87%
% Cell viability (Saos-2 cell line; Saos-2, 48 h, 100 μM drug-eq.): 95%
% Cell viability (Saos-2 cell line; Saos-2, 72 h, 20 μM drug-eq.): 86%
% Cell viability (Saos-2 cell line; Saos-2, 72 h, 50 μM drug-eq.): 63%
% Cell viability (Saos-2 cell line; Saos-2, 72 h, 100 μM drug-eq.): 68%
% Cell viability (U937 cell line; U937, 24 h, 20 μM drug-eq.): 98%
% Cell viability (U937 cell line; U937, 24 h, 50 μM drug-eq.): 96%
% Cell viability (U937 cell line; U937, 24 h, 100 μM drug-eq.): 84%
% Cell viability (U937 cell line; U937, 24 h, 250 μM drug-eq.): 50%
% Cell viability (U937 cell line; U937, 24 h, 500 μM drug-eq.): 27%
% Inh. caspase ([2]; Saos-2, 24 h): 67%
% Inh. caspase ([2]; Saos-2, 48 h): 72%
% Inh. caspase ([2]; Saos-2, 72 h): 100%

Molecule: NC(=O)CN(CCc1ccc(Cl)cc1Cl)C(=O)C1CC(=O)N(CCc2ccc(Cl)cc2Cl)CC(=O)N1CCC(c1ccccc1)c1ccccc1 (centres unmarked) [I.1, 1-[2-(2,4-Dichlorophenyl)ethyl]-4-(3,3-diphenylpropyl)-3,7-dioxo[1,4]-diazepane-5-carboxylic acid carbamoylmethyl-[2-(2,4-dichlorophenyl)-ethyl]amide]
inhibition at 1 µM ([1]; U937, 24 h): 0%
inhibition at 5 µM ([1]; U937, 24 h): 19%
inhibition at 1 µM ([1]; U937, 48 h): 14%
inhibition at 5 µM ([1]; U937, 48 h): 19%
inhibition at 1 µM ([1]; U937, 72 h): 12%
inhibition at 5 µM ([1]; U937, 72 h): 46%
inhibition at 1 µM (Caspase activity, HeLa; 24 h): 29%
inhibition at 5 µM (Caspase activity, HeLa; 24 h): 31%
inhibition at 1 µM (Caspase activity, HeLa; 48 h): 75%
inhibition at 5 µM (Caspase activity, HeLa; 48 h): 78%
inhibition at 1 µM (Caspase activity, HeLa; 72 h): 34%
inhibition at 5 µM (Caspase activity, HeLa; 72 h): 33%
% Cell viability (Saos-2 cell line; Saos-2, 24 h, 1 μM): 99%
% Cell viability (Saos-2 cell line; Saos-2, 24 h, 5 μM): 100%
% Cell viability (Saos-2 cell line; Saos-2, 24 h, 10 μM): 96% and 100%
% Cell viability (Saos-2 cell line; Saos-2, 24 h, 25 μM): 63%
% Cell viability (Saos-2 cell line; Saos-2, 24 h, 50 μM): 19%
% Cell viability (Saos-2 cell line; Saos-2, 48 h, 1 μM): 100% and 97%
% Cell viability (Saos-2 cell line; Saos-2, 48 h, 5 μM): 100% and 94%
% Cell viability (Saos-2 cell line; Saos-2, 48 h, 10 μM): 100% and 97%
% Cell viability (Saos-2 cell line; Saos-2, 48 h, 25 μM): 19%
% Cell viability (Saos-2 cell line; Saos-2, 48 h, 50 μM): 11%
% Cell viability (Saos-2 cell line; Saos-2, 72 h, 1 μM): 89%
% Cell viability (Saos-2 cell line; Saos-2, 72 h, 5 μM): 88%
% Cell viability (Saos-2 cell line; Saos-2, 72 h, 10 μM): 80%
% Cell viability (Saos-2 cell line; Saos-2, 72 h, 25 μM): 8%
% Cell viability (U937 cell line; U937, 24 h, 1 μM): 100%
% Cell viability (U937 cell line; U937, 24 h, 5 μM): 98% and 90%
% Cell viability (U937 cell line; U937, 24 h, 10 μM): 95% and 87%
% Cell viability (U937 cell line; U937, 24 h, 25 μM): 59%
% Cell viability (U937 cell line; U937, 24 h, 50 μM): 27%
% Cell viability (U937 cell line; U937, 48 h, 1 μM): 100%
% Cell viability (U937 cell line; U937, 48 h, 5 μM): 97% and 94%
% Cell viability (U937 cell line; U937, 48 h, 10 μM): 99% and 83%
% Cell viability (U937 cell line; U937, 72 h, 1 μM): 98%
% Cell viability (U937 cell line; U937, 72 h, 5 μM): 89%
% Cell viability (U937 cell line; U937, 72 h, 10 μM): 67%
inhibition at 1 µM ([2]; Saos-2, 24 h): 21%
inhibition at 1 µM ([2]; Saos-2, 48 h): 17%
inhibition at 1 µM ([2]; Saos-2, 72 h): 4%
inhibition at 1 µM (Caspase activity, U2-OS; 24 h): 0%
inhibition at 5 µM (Caspase activity, U2-OS; 24 h): 0%
inhibition at 1 µM (Caspase activity, U2-OS; 48 h): 58%
inhibition at 5 µM (Caspase activity, U2-OS; 48 h): 54%
inhibition at 1 µM (Caspase activity, U2-OS; 72 h): 1%
inhibition at 5 µM (Caspase activity, U2-OS; 72 h): 25%
